Results reported in patent US8486975B2, “Non-nucleoside reverse transcriptase inhibitors” (Merck Canada Inc., priority 2010, dated 2013).

Key:
HIV-1 RT enzyme (WT) = HIV-1 RT enzyme (WT) (Human immunodeficiency virus type 1 group M subtype B, UniProt P04585); test: ECL assay for inhibition of HIV reverse transcriptase; type: biochemical; conditions: 100 nM compound; wild-type RT
Description: An assay to determine the in vitro inhibition of HIV reverse transcriptase by compounds of the present invention was conducted as follows: HIV-1 RT enzyme (0.1 nM) was combined with inhibitor or DMSO (10%) in assay buffer (50 mM Tris-HCl, pH 7.8, 1 mM dithiothreitol, 6 mM MgCl2, 80 mM KCl, 0.025% CHAPS, 0.1 mM EGTA), and the mixture preincubated for 30 minutes at room temperature in microtiter plates (Corning Costar #3365). 50 μL reaction mixtures were initiated with a combination of primer-template substrate (5 nM final concentration) and dNTPs (0.6 μM dNTPs, 20 nM Ruthenium-dUTP). The heterodimeric nucleic acid substrate was generated by annealing the DNA primer biotinylated-pD500 (obtained from Integrated DNA Technologies) to t500, a 500 nucleotide RNA template created by in vitro transcription (see Shaw-Reid et al., J. Biol. Chem., 278: 2777-2780). After a 90 minute incubation at 37° C., reactions were quenched by 60 μL of quenching buffer containing 0.05 M EDTA, 0.7% BSA, 0.07% Tween-20 and 0.017% sodium azide in PBS. […] The plate is then left at room temperature for 1 hour, after which it is washed 3 times with 200 μL per well of PBS. 150 μL of 1× read buffer T (MSD) is added and the plate read on the Sector Imager 6000 (MSD).

wild-type HIV-1 = test: Spread assay: inhibition of acute HIV-1 infection of T-lymphoid cells (wild-type); type: cell-based
Description: Assays for the inhibition of acute HIV-1 infection of T-lymphoid cells (alternatively referred to herein as the “spread assay”) were conducted in accordance with Vacca, J. P. et al., Proc. Natl. Acad. Sci. USA 1994, 91: 4096. […] The compounds were also tested using a variant of the assay using HIV strains containing the K103N and Y181C mutants, and found to be less than 20-fold shifted relative to wild-type in all cases.

| SMILES | inhibition at 0.1 µM (HIV-1 RT enzyme (WT)) [%] | Spread (WT) CIC95 (nM) (50% NHS) (wild-type HIV-1) | Spread (WT) CIC95 (nM) (10% FBS) (wild-type HIV-1) |
| --- | --- | --- | --- |
| Cn1c(Cn2ccc(C(F)(F)F)c(Oc3cc(Cl)cc(C#N)c3)c2=O)n[nH]c1=O [Example 1-1, 3-Chloro-5-({1-[(4-methyl-5-oxo-4,5-dihydro-1H-1,2,4-triazol-3-yl)methyl]-2-oxo-4-(trifluoromethyl)-1,2-dihydropyridin-3-yl}oxy)benzonitrile] | 85 | 19 | – |
| CCn1c(Cn2ccc(C(F)(F)F)c(Oc3cc(Cl)cc(C#N)c3)c2=O)n[nH]c1=O [Example 2-1, 3-Chloro-5-({1-[(4-ethyl-5-oxo-4,5-dihydro-1H-1,2,4-triazol-3-yl)methyl]-2-oxo-4-(trifluoromethyl)-1,2-dihydropyridin-3-yl}oxy)benzonitrile] | 75 | 26 | – |
| Cn1c(Cn2ccc(Cl)c(Oc3cc(Cl)cc(C#N)c3)c2=O)n[nH]c1=O [Example 3-1, 3-Chloro-5-({4-chloro-1-[(4-methyl-5-oxo-4,5-dihydro-1H-1,2,4-triazol-3-yl)methyl]-2-oxo-1,2-dihydropyridin-3-yl}oxy)benzonitrile] | 75 | 15 | – |
| Cn1c(Cn2ccc(Br)c(Oc3cc(Cl)cc(C#N)c3)c2=O)n[nH]c1=O [Example 4-1, 3-({4-Bromo-1-[(4-methyl-5-oxo-4,5-dihydro-1H-1,2,4-triazol-3-yl)methyl]-2-oxo-1,2-dihydropyridin-3-yl}oxy)-5-chlorobenzonitrile] | 90 | 12 | – |
| Cn1c(Cn2ccc(C(C)(F)F)c(Oc3cc(Cl)cc(C#N)c3)c2=O)n[nH]c1=O [Example 5-1, 3-Chloro-5-({4-(1,1-difluoroethyl)-1-[(4-methyl-5-oxo-4,5-dihydro-1H-1,2,4-triazol-3-yl)methyl]-2-oxo-1,2-dihydropyridin-3-yl}oxy)benzonitrile] | 75 | 10 | – |
| Cn1c(Cn2cc(Br)c(Cl)c(Oc3cc(Cl)cc(C#N)c3)c2=O)n[nH]c1=O [Example 6-1, 3-({5-Bromo-4-chloro-1-[(4-methyl-5-oxo-4,5-dihydro-lH-l,2,4-triazol-3-yl)methyl]-2-oxo-1,2-dihydropyridin-3-yl}oxy)-5-chlorobenzonitrile] | 90 | – | 5.1 |
| Cn1c(Cn2cc(Br)c(C(F)(F)F)c(Oc3cc(Cl)cc(C#N)c3)c2=O)n[nH]c1=O [Example 7-1, 3-({5-Bromo-1-[(4-methyl-5-oxo-4,5-dihydro-1H-1,2,4-triazol-3-yl)methyl]-2-oxo-4-(trifluoromethyl)-1,2-dihydropyridin-3-yl}oxy)-5-chlorobenzonitrile] | 77 | 23 | – |
| Cn1c(Cn2ccc(C(F)(F)F)c(Oc3cc(C#N)cc(C(F)F)c3)c2=O)n[nH]c1=O [Example 8-1, 3-(Difluoromethyl)-5-({1-[(4-methyl-5-oxo-4,5-dihydro-1H-1,2,4-triazol-3-yl)methyl]-2-oxo-4-(trifluoromethyl)-1,2-dihydropyridin-3-yl}oxy)benzonitrile] | 75 | – | 7.3 |
